Converted amounts (≈) assume the structure as drawn.
Experiments:
Cryptococcus neoformans [1] = settings: reference value; organism not given; cited from earlier work
Pseudomonas aeruginosa = experiment: MIC in liquid culture, P. aeruginosa; format: cell-based
Experimental: (§1) To determine the antimicrobial potential of the two generations (G1—based on SbPh4-core, and G2—based on SbMe3-core) of newly synthesized Sb(V) cyanoximates, several representative compounds were first selected and their antimicrobial properties tested by using disk diffusion assays, The minimal inhibitory concentrations (MIC) of selected compounds were also determined in liquid cultures. Three bacterial and two fungal pathogens were used as target microorganisms. Bacterial pathogens included Gram-negative Pseudomonas aeruginosa and Gram-positive Staphylococcus aureus, representing the ESKAPE group of human pathogens known for their high virulence and antibiotic resistance.
(§2) MIC of the 3rd generation compounds, as well as complete MIC measurements for the 2nd generation Sb(V) compounds, are determined. A dilution assay in a 96-well-plate format, the gold standard for measuring MICS recommended by the Clinical Laboratory Standards Institute (CLSI), is utilized. Prior to plate inoculation, bacterial cultures of P. aeruginosa PAO1, S. aureus NRS70, E. foecium CC17, and E. coli S17 are grown in Mueller Hinton Broth (MHB) to middle log phase as determined by the individual growth curves and diluted to obtain absorbance at 600 nm of 0.1. These normalized cultures are diluted 1:100 using MHB and inoculated into the fresh medium with serially diluted Sb(V) compounds in 96-well plates. The plates are incubated for 24 h at 37° C. For fungal pathogens, cultures of Cryptococcus neoformans strain H99 and Candida albicans strain SC5314 are grown to stationary phase in YPD medium for 18 h at 30° C. Following incubation, fungal cells are centrifuged, washed three times with PBS, and then counted with trypan blue exclusion. Each compound is screened using a microdilution assay with 0.5×10^3 fungal cells in RPMI-MOPS medium at 35° C. for 48 h. Following incubations for bacterial or fungal pathogens, the OD600 is measured using a Biotek Synergy HT microtiter plate reader ([…].). The MIC is defined as the lowest concentration that inhibits growth. An aliquot from the clear wells from the MIC assay is plated on agar to determine minimum bactericidal concentration (MBC) or minimum fungicidal concentration (MFC). Each experiment is based on at least three biological replicates and repeated for consistency. The MIC and MBC for each compound is compared to those obtained for clinically applied antibiotics/antifungals. For bacterial pathogens, the corresponding antibiotics, such as tobramycin (P. aeruginosa), trimethoprim (S. aureus), gentamicin (E. coli) and ampicillin (E. foecium), are used. For fungal pathogens, the data is compared to the antifungal drugs Amphotericin B and Caspofungin for C. neoformans and C. albicans, respectively, by using the CLSI method.
(§3) Two different types of antimicrobial studies were performed: 1) paper disk studies during growth on solid media; and 2) MIC determination during growth in liquid media. […] Antifungal disk assays concluded that Sb(Ph)4 (ECO) was effective against Cryptococcus neoformans and Candida albicans. […] For MIC assays, Sb(Ph)4 (MCO), the Sb(V) cyanoximate, was tested, along with the free cyanoximes H(MCO), H(ECO), and Na[H(ACO)2].
(§4) MIC assays: The MIC assay protocol utilized for determination of the effects of various organoantimony(V) cyanoximate compounds in various bacteria is shown in FIG. 16. Each solubilized in DMSO at 5 mg/ml, starting concentration is 100 μg/ml. Error bars represent standard error of the mean (if none, the values were identical in each experiment). Untested compounds have no bar. Bars reaching 100 μg/ml were not considered to have antifungal activity.

Escherichia coli = experiment: MIC in liquid culture, E. coli; format: cell-based
Experimental: as §1, §2, §3, §4

Staphylococcus aureus = experiment: MIC in liquid culture, S. aureus; format: cell-based
Experimental: as §1, §2, §3, §4

Cryptococcus neoformans [2] = experiment: MIC assay, C. neoformans; format: cell-based; settings: Table 1
Experimental: (§5) To determine the antifungal properties of the two groups of Sb(V) cyanoximaes, Cryptococcus neoformans and Candida albicans, both of which are deadly human pathogens, were tested.
as §2
(§6) Second, the compounds were dissolved in DMSO to […], and their minimal inhibitory concentration (MIC) was determined against C. neoformans and C. albicans. Starting concentration used was 100 μg/ml, and then diluted 1:2.
as §4

Candida albicans [3] = experiment: MIC assay, C. albicans; format: cell-based; settings: Table 1
Experimental: as §5, §2, §6, §4

Cryptococcus neoformans [4] = experiment: Antifungal disk diffusion assay, C. neoformans; format: cell-based; settings: solid compound on paper disk
Experimental: as §5
(§7) First, solid state powder compounds were deposited on paper disks and tested against two fungi: Cryptococcus neoformans and Candia albicans. Each experiment was conducted in triplicate with each compound at each concentration of deposited solid compound. The control was a blank paper (100% cotton disk).
(§8) Disk diffusion assays: No inhibition of Cryptococcus neoformans or Candida albicans for the following organoantimony(V) cyanoximate compounds at any concentration (S, ×2, ×4): H(ACO), H(ECO), H(MCO).

Candida albicans [5] = experiment: Antifungal disk diffusion assay, C. albicans; format: cell-based; settings: solid compound on paper disk
Experimental: as §5, §7, §8

[6] = test system: Staphylococcus aureus MRSA; experiment: Broth dilution assay, S. aureus MRSA; format: cell-based; settings: multi-drug resistant strain, FIG. 20
Text: As shown in FIGS. 20-21, compounds containing Sb display higher bactericidal activity against Gram positive Staphylococcus aureus (FIG. 20) than Gram negative E. coli (FIG. 21). […] In addition, 25-40% reduction of growth was also observed for Sb(Ph4)Br, Sb(Ph4)ECO, Sb(Ph4)ACO, and Sb(Ph4)TCO against Gram negative E. coli (FIG. 21).

| SMILES | MIC concentration (for reference) (Cryptococcus neoformans [1]) [µg/mL] | MIC, P. aeruginosa (Pseudomonas aeruginosa; Table 1) [µg/mL] | antimicrobial effect (Pseudomonas aeruginosa; strain PAO1, paper disk and MIC studies) | MIC, E. coli (Escherichia coli; Table 1) [µg/mL] | antimicrobial effect (Escherichia coli; strain S17, paper disk and MIC studies) | antimicrobial effect (Staphylococcus aureus; Methicillin-resistant strain NRS70, paper disk and MIC studies) | MIC, S. aureus (Staphylococcus aureus; Table 1) [µg/mL] | MIC, C. neoformans (Cryptococcus neoformans [2]) [µg/mL] | MIC, C. albicans (Candida albicans [3]) [µg/mL] | antifungal activity / zone of inhibition in disk assay (Cryptococcus neoformans [4]) | antifungal activity / zone of inhibition in disk assay (Candida albicans [5]) | bactericidal activity [6] |
| --- | --- | --- | --- | --- | --- | --- | --- | --- | --- | --- | --- | --- |
| C[C@@H]1[C@H](O)[C@@H](C)/C=C/C=C/C=C/C=C/C=C/C=C/C=C/[C@H](O[C@@H]2O[C@H](C)[C@@H](O)[C@H](N)[C@@H]2O)C[C@@H]2O[C@](O)(C[C@@H](O)C[C@@H](O)[C@H](O)CC[C@@H](O)C[C@@H](O)CC(=O)O[C@H]1C)C[C@H](O)[C@H]2C(=O)O [Amphotericin B] | 0.5 (≈ 0.541 µM) |  |  |  |  |  |  |  |  |  |  |  |
| N#CC(=N[O][Sb]([c]1ccccc1)([c]1ccccc1)([c]1ccccc1)[c]1ccccc1)C(N)=S [SbPh4TCO] |  | >200 | essentially no antimicrobial activity | >200 | essentially no antimicrobial activity | significant effects | 100 | 25 | 100 | followed in antifungal activity against both strains | followed in antifungal activity against both strains | significant bactericidal activity |
